In US20230286995A1, “METABOLICALLY STABLE PYRIMIDINYL DIHYDROQUINOXALINONES AS TUBULIN POLYMERIZATION INHIBITORS” (UNIVERSITY OF TENNESSEE RESEARCH FOUNDATION, priority 2022, published 2023):
Read-outs that look alike come from different tables or passages of the source.

Experiments:
A375 = assay: Cytotoxicity assay (MTS, 72 h);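 note: compounds tested from 0.1 nM up to 3 µM in four replicate wells, with absorbance read at 490 nm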
MDA-MB-468 = assay: Cytotoxicity assay (MTS, 72 h); type: cell-based, human; conditions: Homo sapiens, MDA-MB-468; Table 1; read-out: IC50 (nM) Breast MDA-MB-468
logP = type: physicochemical; conditions: Table 1; method not described
RPMI-7951 = assay: Cytotoxicity assay (MTS, 72 h); type: cell-based; conditions: Homo sapiens, Table 1, read-out: IC50 (nM) Melanoma RPMI-7951
M14 = assay: Cytotoxicity assay (MTS, 72 h); conditions: Homo sapiens
MDA-MB-453 = assay: Cytotoxicity assay (MTS, 72 h); type: cell-based, human; conditions: Homo sapiens, MDA-MB-453
MDA-MB-231 = assay: Cytotoxicity assay (MTS, 72 h); type: cell-based; conditions: Homo sapiens
Mia PaCa-2 = assay: Cytotoxicity assay (MTS, 72 h); type: cell-based; conditions: Homo sapiens
PANC-1 = assay: Cytotoxicity assay (MTS, 72 h); type: cell-based; conditions: Homo sapiens
Procedure: Mia PaCa-2 and PANC-1 cells were seeded in 96-well plates at 4000 and 5000 cells per well, respectively.
Cytotoxicity Assay. […] Each experiment consisted of four replicates.

[1] = Homo sapiens, A-375, read-out: IC50 (nM) Melanoma A375, Table 1
[2] = M14, read-out: IC50 (nM) Melanoma M14
[3] = Table 1, read-out: IC50 (nM) Breast MDA-MB-453
[4] = MDA-MB-231, read-out: IC50 (nM) Breast MDA-MB-231, Table 1
[5] = Homo sapiens, A-375, read-out: IC50 (nM) Melanoma Cancer A375, Table 6
[6] = M14, read-out: IC50 (nM) Melanoma Cancer M14
[7] = Table 6, read-out: IC50 (nM) Breast Cancer MDA-MB-453
[8] = MDA-MB-231, read-out: IC50 (nM) Breast Cancer MDA-MB-231, Table 6
[9] = Table 6, cells printed in μM, read-out: IC50 Pancreatic cancer Mia PaCa-2
[10] = Table 6, cells printed in μM, read-out: IC50 Pancreatic cancer PANC-1
[11] = read-out: IC50 (nM) Melanoma Cancer A375, Table 6
[12] = Table 6, read-out: IC50 (nM) Pancreatic cancer Mia PaCa-2
[13] = Table 6, read-out: IC50 (nM) Pancreatic cancer PANC-1
[14] = Homo sapiens, A-375, read-out: IC50 Melanoma Cancer A375, Table 6, cells printed in μM
[15] = M14, read-out: IC50 Melanoma Cancer M14
[16] = Table 6, cells printed in μM, read-out: IC50 Breast Cancer MDA-MB-453
[17] = MDA-MB-231, read-out: IC50 Breast Cancer MDA-MB-231, Table 6, cells printed in μM

COc1cc2c(cc1F)N(c1nc(Cl)nc3cccnc13)CC(=O)N2 [Compound 5i, 4-(2-chloropyrido[3,2-d]pyrimidin-4-yl)-6-fluoro-7-methoxy-3,4-dihydroquinoxalin-2(1H)-one]
IC50 (A375; [1]): > 1000 nM | IC50 (MDA-MB-468): 940 ± 300 nM | logP (logP): 2.23 | IC50 (RPMI-7951): > 1000 nM | IC50 (M14; [2]): > 1000 nM | IC50 (MDA-MB-453; [3]): 693 ± 102 nM | IC50 (MDA-MB-231; [4]): > 1000 nM

COc1ccc2c(c1)NC(=O)CN2c1nc(Cl)nc2ccoc12 [Compound 5j, 4-(2-chlorofuro[3,2-d]pyrimidin-4-yl)-7-methoxy-3,4-dihydroquinoxalin-2(1H)-one]
IC50 (A375; [1]): 11.9 ± 3.2 nM | IC50 (MDA-MB-468): 6.4 ± 1.3 nM | logP (logP): 1.6 | IC50 (RPMI-7951): 14.8 ± 3.7 nM | IC50 (M14; [2]): 5.6 ± 1.2 nM | IC50 (MDA-MB-453; [3]): 1.4 ± 0.3 nM | IC50 (MDA-MB-231; [4]): 5.4 ± 0.6 nM

COc1ccc2c(c1)NC(=O)CN2c1nc(C)nc2onc(C)c12 [Compound 5k, 4-(3,6-dimethylisoxazolo[5,4-d]pyrimidin-4-yl)-7-methoxy-3,4-dihydroquinoxalin-2(1H)-one]
IC50 (A375; [1]): 14.3 ± 4.1 nM | IC50 (MDA-MB-468): 7.5 ± 1.6 nM | logP (logP): 2.46 | IC50 (RPMI-7951): 7 ± 2.3 nM | IC50 (M14; [2]): 6.7 ± 2.2 nM | IC50 (MDA-MB-453; [3]): 4.6 ± 1.1 nM | IC50 (MDA-MB-231; [4]): 9.3 ± 1.6 nM

COc1ccc2c(c1)NC(=O)CN2c1nc(S(C)(=O)=O)nc2c1CCC2 [Compound 11, 7-methoxy-4-(2-(methylsulfonyl)-6,7-dihydro-5H-cyclopenta[d]pyrimidin-4-yl)-3,4-dihydroquinoxalin-2(1H) one]
IC50 (A375; [5]): ~84.9 nM | IC50 (M14; [6]): 62.2 ± 10.8 nM | IC50 (MDA-MB-453; [7]): 58.8 ± 16.3 nM | IC50 (MDA-MB-231; [8]): 191 ± 32 nM | IC50 (Mia PaCa-2; [9]): > 1.25 µM | IC50 (PANC-1; [10]): > 1.25 µM

COc1ccc2c(c1)NC(=O)CN2c1nc(O)nc2c1CCC2 [Compound 12a, 4-(2-hydroxy-6,7-dihydro-5H-cyclopenta[d]pyrimidin-4-yl)-7-methoxy-3,4-dihydroquinoxalin-2(1H)-one]
IC50 (A375; [5]): ~646 nM | IC50 (M14; [6]): 662 ± 126 nM | IC50 (MDA-MB-453; [7]): 688 ± 186 nM | IC50 (MDA-MB-231; [8]): 1200 ± 346 nM | IC50 (Mia PaCa-2; [9]): > 1.25 µM | IC50 (PANC-1; [10]): > 1.25 µM

COc1ccc2c(c1)NC(=O)CN2c1nc(N2CCN(C)CC2)nc2c1CCC2 [Compound 12d, 7-methoxy-4-(2-(4-methylpiperazin-1-yl)-6,7-dihydro-5H-cyclopenta[d]pyrimidin-4-yl)-3,4-dihydroquinoxalin-2(1H)-one]
IC50 (A375; [5]): ~543 nM | IC50 (M14; [6]): 574 ± 124 nM | IC50 (MDA-MB-453; [7]): 416 ± 107 nM | IC50 (MDA-MB-231; [8]): 1860 ± 650 nM | IC50 (Mia PaCa-2; [9]): > 1.25 µM | IC50 (PANC-1; [10]): > 1.25 µM

COc1ccc2c(c1)NC(=O)CN2c1nc(N2CCCCC2)nc2c1CCC2 [Compound 12f, 7-methoxy-4-(2-(piperidin-1-yl)-6,7-dihydro-5H-cyclopenta[d]pyrimidin-4-yl)-3,4-dihydroquinoxalin-2(1H)-one]
IC50 (A375; [5]): ~436 nM | IC50 (M14; [6]): 601 ± 117 nM | IC50 (MDA-MB-453; [7]): 499 ± 126 nM | IC50 (MDA-MB-231; [8]): 690 ± 147 nM | IC50 (Mia PaCa-2; [9]): > 1.25 µM | IC50 (PANC-1; [10]): > 1.25 µM

COc1ccc2c(c1)NC(=O)CN2c1nc(N2CCCC2)nc2c1CCC2 [Compound 12g, 7-methoxy-4-(2-(pyrrolidin-1-yl)-6,7-dihydro-5H-cyclopenta[d]pyrimidin-4-yl)-3,4-dihydroquinoxalin-2(1H)-one]
IC50 (A375; [5]): ~82.1 nM | IC50 (A375; [11]): 82.2 ± 12.9 nM | IC50 (M14; [6]): 84.7 ± 17.6 nM | IC50 (MDA-MB-453; [7]): 98.1 ± 23.3 nM | IC50 (MDA-MB-231; [8]): 119 ± 20.5 nM | IC50 (Mia PaCa-2; [12]): 0.508 ± 0.0591 µM | IC50 (PANC-1; [13]): 0.213 ± 0.0476 µM

COc1ccc2c(c1)NC(=O)CN2c1nc(N(C)C)nc2c1CCC2 [Compound 12i, 4-(2-(dimethylamino)-6,7-dihydro-5H-cyclopenta[d]pyrimidin-4-yl)-7-methoxy-3,4-dihydroquinoxalin-2(1H)-one]
IC50 (A375; [5]): ~22.6 nM | IC50 (A375; [11]): 22 ± 4.5 nM | IC50 (M14; [6]): 21.1 ± 4.1 nM | IC50 (MDA-MB-453; [7]): 16.1 ± 4.7 nM | IC50 (MDA-MB-231; [8]): 36.9 ± 6.1 nM | IC50 (Mia PaCa-2; [9]): > 1.25 µM | IC50 (PANC-1; [10]): > 1.25 µM

Cc1nc2c(c(N3CC(=O)Nc4cc(OC(F)(F)F)ccc43)n1)CCC2 [Compound 12o, 4-(2-methyl-6,7-dihydro-5H-cyclopenta[d]pyrimidin-4-yl)-7-(trifluoromethoxy)-3,4-dihydroquinoxalin-2(1H)-one]
IC50 (A375; [5]): ~43.1 nM | IC50 (M14; [6]): 41.9 ± 5.6 nM | IC50 (MDA-MB-453; [7]): 34.9 ± 6.4 nM | IC50 (MDA-MB-231; [8]): 75.8 ± 13.1 nM | IC50 (Mia PaCa-2; [12]): 0.0835 ± 0.0128 µM | IC50 (PANC-1; [13]): 0.0424 ± 0.0085 µM

Cc1nc2c(c(N3CC(=O)Nc4cc(O)ccc43)n1)CCC2 [Compound 12q, 7-hydroxy-4-(2-methyl-6,7-dihydro-5H-cyclopenta[d]pyrimidin-4-yl)-3,4-dihydroquinoxalin-2(1H)-one]
IC50 (A375; [5]): ~19 nM | IC50 (M14; [6]): 21.8 ± 4.5 nM | IC50 (MDA-MB-453; [7]): 13.5 ± 3.3 nM | IC50 (MDA-MB-231; [8]): 25.9 ± 4.9 nM | IC50 (Mia PaCa-2; [12]): 0.0343 ± 0.0053 µM

COc1ccc2c(c1)[nH]c(=O)c(=O)n2-c1nc(SC)nc2c1CCC2 [Compound 14, 6-methoxy-1-(2-(methylthio)-6,7-dihydro-5H-cyclopenta[d]pyrimidin-4-yl)quinoxaline-2,3(1H,4H)-dione]
IC50 (A375; [14]): > 3000 nM

COc1ccc2c(c1)[nH]c(=O)c(=O)n2-c1nc(S(C)(=O)=O)nc2c1CCC2 [Compound 15, 6-methoxy-1-(2-(methylsulfone)-6,7-dihydro-5H-cyclopenta[d]pyrimidin-4-yl)quinoxaline-2,3(1H,4H)-dione]
IC50 (A375; [14]): > 3000 nM | IC50 (M14; [15]): > 3000 nM | IC50 (MDA-MB-453; [16]): > 3000 nM | IC50 (MDA-MB-231; [17]): > 3000 nM

COc1ccc2c(c1)[nH]c(=O)c(=O)n2-c1nc(OC)nc2c1CCC2 [Compound 16, 6-methoxy-1-(2-methoxy-6,7-dihydro-5H-cyclopenta[d]pyrimidin-4-yl)quinoxaline-2,3(1H,4H)-dione]
IC50 (A375; [14]): > 3000 nM | IC50 (M14; [15]): > 3000 nM | IC50 (MDA-MB-453; [16]): > 3000 nM | IC50 (MDA-MB-231; [17]): > 3000 nM | IC50 (Mia PaCa-2; [9]): > 1.25 µM | IC50 (PANC-1; [10]): > 1.25 µM

COc1ccc2c(c1)[nH]c(=O)n2-c1nc(SC)nc2c1CCC2 [Compound 18, 5-methoxy-1-(2-(methylthio)-6,7-dihydro-5H-cyclopenta[d]pyrimidin-4-yl)-1H-benzo[d]imidazol-2(3H)-one]
IC50 (A375; [5]): 1180 ± 339 nM | IC50 (M14; [6]): 1110 ± 306 nM | IC50 (MDA-MB-453; [7]): 2180 ± 861 nM | IC50 (MDA-MB-231; [8]): 1340 ± 409 nM | IC50 (Mia PaCa-2; [9]): > 1.25 µM | IC50 (PANC-1; [10]): > 1.25 µM

Cc1nc2c(c(-n3c(=O)[nH]c4cc(OC(F)(F)F)ccc43)n1)CCC2 [Compound 18a, 1-(2-methyl-6,7-dihydro-5H-cyclopenta[d]pyrimidin-4-yl)-5-(trifluoromethoxy)-1H-benzo[d]imidazol-2-one]
IC50 (A375; [5]): 238 ± 126 nM | IC50 (M14; [6]): 1080 ± 682 nM | IC50 (MDA-MB-231; [8]): 919 ± 722 nM | IC50 (Mia PaCa-2; [12]): 0.667 ± 0.652 µM | IC50 (PANC-1; [13]): 0.164 ± 0.0982 µM

COc1ccc2c(c1)nc(-c1ccc(OC)c(OC)c1OC)n2-c1nc(SC)nc2c1CCC2 [Compound 19, 5-methoxy-1-(2-(methylthio)-6,7-dihydro-5H-cyclopenta[d]pyrimidin-4-yl)-2-(2,3,4-trimethoxyphenyl)-1H-benzo[d]imidazole]
IC50 (A375; [14]): > 3000 nM | IC50 (M14; [15]): > 3000 nM | IC50 (MDA-MB-453; [16]): > 3000 nM | IC50 (MDA-MB-231; [17]): > 3000 nM | IC50 (Mia PaCa-2; Table 6, cell printed in MM, read-out: IC50 Pancreatic cancer Mia PaCa-2): > 1.25 µM | IC50 (PANC-1; [10]): > 1.25 µM
